Literature values, collected in PMC11187573, “Identification of SARS-CoV-2 Mpro inhibitors through deep reinforcement learning for de novo drug design and computational chemistry approaches” (RSC Medicinal Chemistry, 2024).

Test system: Mpro
Details: ML dataset, Origin COVID_Moonshot; ref COVID Moonshot; cited from earlier work

Row | SMILES | IC50
1 | CS(=O)(=O)c1ccc(N2CCNCC2)cc1 | 91.6 µM
2 | O=C(Cc1cccc(Cl)c1)Nc1cnccc1-c1ccccc1 | 33 µM
3 | Cc1ccncc1NC(=O)Cc1cccc(F)c1 | 95.8 µM
4 | Nc1cncc2c1CCCN2C(=O)Cc1cccc(Cl)c1 | 43.4 µM
5 | Cc1ccncc1NC(=O)CN1C(=O)COc2ccc(Cl)cc21 | 49.4 µM
6 | O=C(c1cc(=O)[nH]c2ccccc12)N1CCN(c2ccccc2F)CC1 | 24 µM
7 | O=C(Nc1cncc2c1CNCC2)C1CCOc2ccc(Cl)cc21 (stereo not drawn) | 6.16 µM
8 | Cc1ccncc1NC(=O)C1CCOc2ccc(Cl)cc21 (stereo not drawn) | 16 µM
9 | CCCCOc1ccc(Cl)cc1CC(=O)Nc1cnccc1C | 20.2 µM
10 | Cn1c(=O)[nH]c2cncc(NC(=O)C3CCOc4ccc(Cl)cc43)c21 (stereo not drawn) | 20.7 µM
11 | Cc1ccncc1NC(=O)CN1CCC(C)CC1 | 49.2 µM
12 | Cc1ccncc1CC(=O)Nc1cccc(Cl)c1 | 28.1 µM
13 | COc1ccccc1OCCNC(=O)c1cc(=O)[nH]c2cccc(C)c12 | 6.61 µM
14 | O=C(c1cc(=O)[nH]c2ccccc12)N1CCN(c2cccc(Cl)c2)C(=O)C1 | 12.7 µM
15 | Cc1ccncc1N1CCN(c2cccc(Cl)c2)C1=O | 90.3 µM
16 | O=C(Cc1cccc(Cl)c1)Nn1cnc2ccccc21 | 6.28 µM
17 | Cc1ccncc1NC(=O)Cc1cccc(Br)c1 | 18.3 µM
18 | CCCC(C(=O)Nc1cnccc1C)c1cccc(Cl)c1 (stereo not drawn) | 11.4 µM
19 | O=C(Nc1cccnc1)N(CCC1CCCCC1)c1cccc(Cl)c1 | 3.18 µM
20 | Cc1ccncc1NC(=O)Cc1cc(Cl)cc(NC2CCCC2O)c1 (stereo not drawn) | 29.3 µM
21 | Cc1ccncc1NC(=O)Cc1cc(Cl)cc(NC2CC2C(F)(F)F)c1 (stereo not drawn) | 22.5 µM
22 | O=C(Cc1cccc(Cl)c1)Nc1cncc2c1CCC2 | 4.91 µM
23 | Cc1ccncc1NC(=O)CC(C)C(C)C (stereo not drawn) | 99 µM

Row | SMILES | IC50
24 | COc1ccccc1OCCNC(=O)c1cc(=O)[nH]c2ccccc12 | 5.35 µM
25 | O=C(Cc1cc(Cl)cc2c1OCC2)Nc1cncc2ccccc12 | 0.97 µM
26 | O=C(Cc1cccc(Cl)c1)Nn1nnc2ccccc21 | 18.4 µM
27 | COc1cc(Cl)cc(CC(=O)Nc2cnccc2C)c1 | 40.2 µM
28 | Cc1ccncc1NC(=O)Cc1cc(Cl)cc(-c2ccc(C)c(F)c2F)c1 | 44.1 µM
29 | O=C(Cc1cccc(Cl)c1)Nc1cncc2nc[nH]c12 | 10.6 µM
30 | O=C(Cc1cccc(Cl)c1)Nc1cnc2ccccn12 | 8.03 µM
31 | Cn1cncc1NC(=O)Cc1cccc(Cl)c1 | 96.4 µM
32 | O=C(Cc1cncnc1)Nc1cc(F)cc(OC2CC(=O)N2)c1 (stereo not drawn) | 24.9 µM
33 | O=C(Cc1cccnc1)Nc1cccc(OC2CC(=O)N2)c1 (stereo not drawn) | 88.3 µM
34 | Cc1cc(NC(=O)Cc2cncnc2)cc(OC2CC(=O)N2)c1 (stereo not drawn) | 34.3 µM
35 | CC(=O)NCc1cc(Cl)cc(CC(=O)Nc2cnccc2C)c1 | 48.4 µM
36 | Cc1ccncc1NC(=O)Cc1cc(Cl)cc(OC2CC(=O)N2)c1 (stereo not drawn) | 2.28 µM
37 | Cc1ccncc1NC(=O)C(C)c1cc(Cl)cc(OC2CC(=O)N2)c1 (stereo not drawn) | 82.6 µM
38 | Cc1ccncc1NC(=O)Nc1cccc(Cl)c1 | 55.1 µM
39 | Cc1ccncc1NC(=O)C(C)c1cccc(Cl)c1 (stereo not drawn) | 19.6 µM
40 | Cc1c(N)cncc1NC(=O)Cc1cccc(C#N)c1 | 24.1 µM
41 | Cc1ccncc1NC(=O)Cc1cccc(C#N)c1 | 52.6 µM
42 | Cc1ccncc1NC(=O)C(C)c1cccc(C#N)c1 (stereo not drawn) | 50.1 µM
43 | Cc1c(N)cncc1NC(=O)Cc1cccc(Cl)c1 | 6.21 µM
44 | Cc1ccncc1NC(=O)Cc1cccc(Cl)c1 | 19.2 µM
45 | O=C(Nc1cncc2ccccc12)C1COc2ccc(Cl)cc21 (racemic) | 1.86 µM
46 | CN(C(=O)Cn1nnc2ccccc21)c1ccc(Oc2ccc(C(F)(F)F)cn2)cc1 [AAR-POS-8a4e0f60-7] | 37.8 µM

Row | SMILES | IC50
47 | COc1cc(Cl)cc(OC(=O)Nc2cccnc2)c1 [AGN-NEW-891393a6-1] | 4.1 µM
48 | CC(C)(C)c1ccc(N(C(=O)c2ccco2)C(C(=O)N2CCOCC2)c2cccnc2)cc1 (stereo not drawn) [ALP-POS-0c0a3b93-1] | 41 µM
49 | CC(C)(C)c1ccc(N(C(=O)C2CCCO2)C(C(=O)NCCc2cccc(F)c2)c2cccnc2)cc1 (stereo not drawn) [ALP-POS-02c6a514-17] | 5.56 µM
50 | Cc1ccncc1C(C(=O)NCCc1cccc(F)c1)N(C(=O)c1ccco1)c1ccc(C(C)(C)C)cc1 (stereo not drawn) [ALP-POS-02c6a514-44] | 0.112 µM
51 | CC(C)(C)c1ccc(N(C(=O)c2ncc[nH]2)C(C(=O)NCCc2cccc(F)c2)c2cccnc2)cc1 (stereo not drawn) [ALP-POS-02c6a514-46] | 5.29 µM
52 | CC(C)(C)c1ccc(N(C(=O)c2nccs2)C(C(=O)NCCc2cccc(F)c2)c2cccnc2)cc1 (stereo not drawn) [ALP-POS-02c6a514-49] | 0.8 µM
53 | CC(C)(C)c1ccc(N(C(=O)c2cocn2)C(C(=O)NCCc2cccc(F)c2)c2cccnc2)cc1 (stereo not drawn) [ALP-POS-02c6a514-50] | 0.557 µM
54 | CC(C)(C)c1ccc(N(C(=O)c2ccn[nH]2)C(C(=O)NCCc2cccc(F)c2)c2cccnc2)cc1 (stereo not drawn) [ALP-POS-02c6a514-52] | 1.78 µM
55 | CC(C)(C)c1ccc(N(C(=O)c2ccco2)C(C(=O)NCCN2CCOCC2)c2cccnc2)cc1 (stereo not drawn) [ALP-POS-02c6a514-55] | 2.19 µM
56 | CC(C)(C)c1ccc(N(C(=O)c2ccco2)C(C(=O)Nc2ccccc2)c2cccnc2)cc1 (stereo not drawn) [ALP-POS-02c6a514-56] | 11.2 µM
57 | CC(C)(C)c1ccc(N(C(=O)c2ccco2)C(C(=O)NCc2ccccc2)c2cccnc2)cc1 (stereo not drawn) [ALP-POS-02c6a514-57] | 4.36 µM
58 | O=C(C[C@@]1(C(=O)Nc2cncc3ccccc23)CCOc2ccc(Cl)cc21)N1CCN(C2CCOC2)CC1 (stereo partly drawn) [ALP-POS-2da19ca7-2] | 46.5 µM
59 | O=C(Cc1cc(Cl)cc(OC2CC(=O)N2)c1)Nc1cncc2ccccc12 (stereo not drawn) [ALP-POS-3b848b35-2, O=C(Cc1cc(Cl)cc(OC2CC(=O)N2)c1)Nc1cncc2ccccc12, reference compound] | 0.18 µM
60 | COc1c(Cl)cccc1OCCNC(=O)c1cc(=O)[nH]c2ccccc12 [ALP-POS-3fc1724e-1] | 11.5 µM
61 | O=C(CC1(C(=O)Nc2cncc3ccccc23)CCOc2ccc(Cl)cc21)N1CCN(C2CCOC2)CC1 (stereo not drawn) [ALP-POS-5bb456a5-7] | 6.68 µM
62 | O=C(C[C@]1(C(=O)Nc2cncc3ccccc23)CCOc2ccc(Cl)cc21)N1CCN(C2CCOC2)CC1 (stereo partly drawn) [ALP-POS-5bb456a5-8] | 1.99 µM
63 | CN(C)c1ccc(N(Cc2ccccc2)C(=O)Cn2nnc3ccccc32)cc1 [ALP-POS-6d04362c-1] | 3.31 µM
64 | O=C(Cn1nnc2ccccc21)N(Cc1ccsc1)c1ccc(N2CCOCC2)cc1 [ALP-POS-6d04362c-4] | 16.5 µM
65 | CN(C)c1ccc(N(Cc2cscn2)C(=O)Cn2nnc3ccccc32)cc1 [ALP-POS-87c86d55-1] | 9.57 µM
66 | CCC(=O)Nc1ccc(N(Cc2cscn2)C(=O)Cn2nnc3ccccc32)cc1 [ALP-POS-87c86d55-2] | 35.5 µM
67 | CC(C)(C)c1ccc(N(C(=O)c2cocn2)C(C(=O)NCc2cccnc2)c2cccnc2)cc1 (stereo not drawn) [ALP-POS-88a7a97e-4] | 25.3 µM
68 | COC(=O)C(C)NC(=O)C(c1cccnc1)N(C(=O)c1cocn1)c1ccc(C(C)(C)C)cc1 (stereo not drawn) [ALP-POS-88a7a97e-5] | 7.18 µM
69 | COC(=O)[C@@H]1CC[C@H](NC(=O)C(c2cccnc2)N(C(=O)c2cocn2)c2ccc(C(C)(C)C)cc2)C1 (stereo partly drawn) [ALP-POS-88a7a97e-6] | 2.38 µM

Row | SMILES | IC50
70 | CC(C)(C)c1ccc(N(C(=O)c2cocn2)C(C(=O)NC2CCOCC2)c2cccnc2)cc1 (stereo not drawn) [ALP-POS-88a7a97e-9] | 3.9 µM
71 | COC(=O)C1CC(NC(=O)C(c2cccnc2)N(C(=O)c2cocn2)c2ccc(C(C)(C)C)cc2)C1 (stereo not drawn) [ALP-POS-88a7a97e-15] | 3.99 µM
72 | CC(C)(C)c1ccc(N(C(=O)c2cocn2)C(C(=O)NCC2CCOC2)c2cccnc2)cc1 (stereo not drawn) [ALP-POS-88a7a97e-26] | 5.42 µM
73 | CC(C)(C)c1ccc(N(C(=O)c2cocn2)C(C(=O)NCC2CCCO2)c2cccnc2)cc1 (stereo not drawn) [ALP-POS-88a7a97e-27] | 5.15 µM
74 | CC(C)(C)c1ccc(N(C(=O)c2cocn2)C(C(=O)NC2CCOC2)c2cccnc2)cc1 (stereo not drawn) [ALP-POS-88a7a97e-30] | 2.77 µM
75 | COCCNC(=O)C(c1cccnc1)N(C(=O)c1cocn1)c1ccc(C(C)(C)C)cc1 (stereo not drawn) [ALP-POS-88a7a97e-31] | 8.46 µM
76 | COC(=O)CNC(=O)C(c1cccnc1)N(C(=O)c1cocn1)c1ccc(C(C)(C)C)cc1 (stereo not drawn) [ALP-POS-88a7a97e-33] | 10.8 µM
77 | CC(C)(C)c1ccc(N(C(=O)c2cocn2)C(C(=O)NC2COC2)c2cccnc2)cc1 (stereo not drawn) [ALP-POS-88a7a97e-34] | 4.07 µM
78 | COC(=O)C1(NC(=O)C(c2cccnc2)N(C(=O)c2cocn2)c2ccc(C(C)(C)C)cc2)CCCC1 (stereo not drawn) [ALP-POS-88a7a97e-36] | 5.26 µM
79 | CC(C)(C)c1ccc(N(C(=O)c2cocn2)C(C(=O)NC2CC(F)(F)C2)c2cccnc2)cc1 (stereo not drawn) [ALP-POS-88a7a97e-39] | 2.35 µM
80 | COc1ccc(NC(=O)C(c2cccnc2)N(C(=O)c2cocn2)c2ccc(C(C)(C)C)cc2)cn1 (stereo not drawn) [ALP-POS-88a7a97e-41] | 5.37 µM
81 | Cc1ccc(S(=O)(=O)CNC(=O)C(c2cccnc2)N(C(=O)c2cocn2)c2ccc(C(C)(C)C)cc2)cc1 (stereo not drawn) [ALP-POS-88a7a97e-42] | 62.9 µM
82 | CC(C)(C)c1ccc(N(C(=O)c2cocn2)C(C(=O)NCC(=O)OCc2ccccc2)c2cccnc2)cc1 (stereo not drawn) [ALP-POS-88a7a97e-44] | 9.92 µM
83 | CC(C)(C)c1ccc(N(C(=O)c2cocn2)C(C(=O)NCCN2CCOCC2)c2cccnc2)cc1 (stereo not drawn) [ALP-POS-88a7a97e-47] | 82.5 µM
84 | CCOC(=O)c1ncoc1CNC(=O)C(c1cccnc1)N(C(=O)c1cocn1)c1ccc(C(C)(C)C)cc1 (stereo not drawn) [ALP-POS-88a7a97e-49] | 5.88 µM
85 | CC(C)(C)c1ccc(N(C(=O)c2c[nH]c(=O)s2)C(C(=O)NCCc2cccc(F)c2)c2cccnc2)cc1 (stereo not drawn) [ALP-POS-305f6ec3-2] | 29.1 µM
86 | CC(C)(C)c1ccc(N(C(=O)c2c[nH]nn2)C(C(=O)NCCc2cccc(F)c2)c2cccnc2)cc1 (stereo not drawn) [ALP-POS-305f6ec3-14] | 1.17 µM
87 | CC(C)(C)c1ccc(N(C(=O)c2c[nH]c(=O)cn2)C(C(=O)NCCc2cccc(F)c2)c2cccnc2)cc1 (stereo not drawn) [ALP-POS-305f6ec3-33] | 77.1 µM
88 | CC(C)(C)c1ccc(N(C(=O)c2cc(CO)[nH]n2)C(C(=O)NCCc2cccc(F)c2)c2cccnc2)cc1 (stereo not drawn) [ALP-POS-305f6ec3-38] | 18.8 µM
89 | CC(C)(C)c1ccc(N(C(=O)c2cncs2)C(C(=O)NCCc2cccc(F)c2)c2cccnc2)cc1 (stereo not drawn) [ALP-POS-305f6ec3-41] | 24.2 µM
90 | Cn1ncc(C(=O)N(c2ccc(C(C)(C)C)cc2)C(C(=O)NCCc2cccc(F)c2)c2cccnc2)n1 (stereo not drawn) [ALP-POS-305f6ec3-46] | 17.6 µM
